Consider 2 molecules from ChEMBL document CHEMBL4376804, “Review of Transient Receptor Potential Canonical (TRPC5) Channel Modulators and Diseases” (J Med Chem, 2019).

Test [1] addresses T1, Short transient receptor potential channel 5 (Mus musculus, UniProt Q9QX29).
T1 sequence (Q9QX29 whole entry): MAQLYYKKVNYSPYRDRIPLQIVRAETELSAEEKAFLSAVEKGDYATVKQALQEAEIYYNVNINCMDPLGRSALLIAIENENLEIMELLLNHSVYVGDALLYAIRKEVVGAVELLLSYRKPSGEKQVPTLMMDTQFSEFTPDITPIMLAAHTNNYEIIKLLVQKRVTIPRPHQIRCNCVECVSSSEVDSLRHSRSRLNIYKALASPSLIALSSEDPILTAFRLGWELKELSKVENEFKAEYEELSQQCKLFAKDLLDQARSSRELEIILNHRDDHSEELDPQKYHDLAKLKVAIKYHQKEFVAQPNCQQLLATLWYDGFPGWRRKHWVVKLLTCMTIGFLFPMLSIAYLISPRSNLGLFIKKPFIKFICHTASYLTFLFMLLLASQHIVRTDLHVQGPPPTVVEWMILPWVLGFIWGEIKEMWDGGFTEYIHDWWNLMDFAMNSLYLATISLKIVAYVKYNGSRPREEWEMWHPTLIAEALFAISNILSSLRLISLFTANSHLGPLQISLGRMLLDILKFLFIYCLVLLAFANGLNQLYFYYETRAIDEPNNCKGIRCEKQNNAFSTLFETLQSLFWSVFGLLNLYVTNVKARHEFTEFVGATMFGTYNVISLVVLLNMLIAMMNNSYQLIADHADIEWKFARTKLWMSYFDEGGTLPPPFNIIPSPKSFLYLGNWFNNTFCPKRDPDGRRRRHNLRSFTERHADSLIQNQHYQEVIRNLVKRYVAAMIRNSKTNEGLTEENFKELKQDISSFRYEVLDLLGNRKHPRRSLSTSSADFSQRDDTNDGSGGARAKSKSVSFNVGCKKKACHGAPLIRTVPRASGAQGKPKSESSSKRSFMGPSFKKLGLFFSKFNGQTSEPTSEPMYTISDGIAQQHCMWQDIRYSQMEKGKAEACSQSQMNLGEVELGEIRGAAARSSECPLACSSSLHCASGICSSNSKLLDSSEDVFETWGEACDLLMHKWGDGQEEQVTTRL
Nature of the test: Inhibition of mouse TRPC5 expressed in thapsigargin treated HEK293/TREx cells assessed as reduction in intracellular calcium level in presence of GPCR agonist by fluorescence method. The format is cell-based. A general note: A change in cytosolic calcium serves as a functional read-out for many receptors and channels.

For test [2], the target named is T2, Short transient receptor potential channel 3 (Homo sapiens, UniProt Q13507).
T2 sequence (Q13507 whole entry): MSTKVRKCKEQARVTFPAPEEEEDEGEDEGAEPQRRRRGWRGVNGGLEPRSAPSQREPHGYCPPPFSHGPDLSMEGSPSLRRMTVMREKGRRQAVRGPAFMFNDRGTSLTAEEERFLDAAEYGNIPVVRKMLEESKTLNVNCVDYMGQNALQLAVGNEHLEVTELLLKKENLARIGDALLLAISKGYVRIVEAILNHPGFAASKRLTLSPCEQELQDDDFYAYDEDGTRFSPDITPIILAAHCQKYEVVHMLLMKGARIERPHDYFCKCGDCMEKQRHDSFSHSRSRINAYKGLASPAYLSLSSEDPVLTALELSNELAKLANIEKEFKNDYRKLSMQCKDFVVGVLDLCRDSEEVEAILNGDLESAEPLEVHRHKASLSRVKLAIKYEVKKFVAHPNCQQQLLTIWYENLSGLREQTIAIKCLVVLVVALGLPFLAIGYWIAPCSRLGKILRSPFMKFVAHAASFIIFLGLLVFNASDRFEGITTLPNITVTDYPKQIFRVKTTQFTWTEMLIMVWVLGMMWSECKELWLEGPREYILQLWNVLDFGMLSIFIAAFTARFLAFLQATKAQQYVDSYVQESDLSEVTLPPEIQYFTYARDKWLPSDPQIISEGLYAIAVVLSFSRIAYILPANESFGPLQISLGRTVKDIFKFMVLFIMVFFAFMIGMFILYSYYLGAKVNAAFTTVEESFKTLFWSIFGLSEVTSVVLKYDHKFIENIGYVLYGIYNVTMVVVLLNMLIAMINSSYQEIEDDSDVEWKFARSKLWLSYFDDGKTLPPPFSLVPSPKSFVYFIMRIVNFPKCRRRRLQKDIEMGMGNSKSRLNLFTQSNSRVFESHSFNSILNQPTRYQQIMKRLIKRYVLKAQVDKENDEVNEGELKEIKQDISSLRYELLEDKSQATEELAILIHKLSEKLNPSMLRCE
Briefly: Inhibition of human TRPC3 expressed in CHO cells assessed as reduction in OAG-induced calcium influx after 10 mins by fluo-4/AM dye based FLIPR assay. The format is cell-based.

Test [3] concerns the target Short transient receptor potential channel 7 (Homo sapiens, UniProt Q9HCX4). Nature of the test: Inhibition of human TRPC7 expressed in HEK293 cells assessed as reduction in OAG-induced calcium influx after 10 mins by fluo-4/AM dye based FLIPR assay. It counts as cell-based.
The target of test [4] is T3, Short transient receptor potential channel 4 (Mus musculus, UniProt Q9QUQ5).
T3 sequence (Q9QUQ5 whole entry): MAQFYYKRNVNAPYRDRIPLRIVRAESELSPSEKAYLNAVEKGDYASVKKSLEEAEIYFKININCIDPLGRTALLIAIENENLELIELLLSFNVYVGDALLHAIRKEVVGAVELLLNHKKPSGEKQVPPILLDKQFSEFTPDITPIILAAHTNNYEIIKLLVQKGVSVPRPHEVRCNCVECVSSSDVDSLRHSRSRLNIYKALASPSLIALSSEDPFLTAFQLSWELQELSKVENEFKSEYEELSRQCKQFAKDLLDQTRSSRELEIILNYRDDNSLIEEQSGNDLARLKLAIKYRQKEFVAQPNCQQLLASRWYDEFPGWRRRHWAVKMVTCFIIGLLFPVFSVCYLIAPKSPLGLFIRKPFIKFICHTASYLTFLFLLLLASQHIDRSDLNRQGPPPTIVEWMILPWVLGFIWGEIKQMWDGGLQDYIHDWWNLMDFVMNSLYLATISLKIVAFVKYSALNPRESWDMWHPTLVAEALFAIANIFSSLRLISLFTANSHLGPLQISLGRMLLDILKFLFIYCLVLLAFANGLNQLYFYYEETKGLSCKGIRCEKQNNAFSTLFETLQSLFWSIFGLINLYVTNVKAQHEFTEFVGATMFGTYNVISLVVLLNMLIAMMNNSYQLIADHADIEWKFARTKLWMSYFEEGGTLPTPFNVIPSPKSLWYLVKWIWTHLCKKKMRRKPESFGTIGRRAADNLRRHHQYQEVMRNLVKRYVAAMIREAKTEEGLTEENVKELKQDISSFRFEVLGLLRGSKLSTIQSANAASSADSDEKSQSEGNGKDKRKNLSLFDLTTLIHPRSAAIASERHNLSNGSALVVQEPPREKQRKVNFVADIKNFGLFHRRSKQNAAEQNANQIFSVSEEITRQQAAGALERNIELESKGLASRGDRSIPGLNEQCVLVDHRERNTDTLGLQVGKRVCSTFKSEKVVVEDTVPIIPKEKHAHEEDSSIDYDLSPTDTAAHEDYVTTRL
Nature of the test: Inhibition of mouse TRPC4 by FLIPR assay.

Short transient receptor potential channel 7, sequence (Q9HCX4 whole entry): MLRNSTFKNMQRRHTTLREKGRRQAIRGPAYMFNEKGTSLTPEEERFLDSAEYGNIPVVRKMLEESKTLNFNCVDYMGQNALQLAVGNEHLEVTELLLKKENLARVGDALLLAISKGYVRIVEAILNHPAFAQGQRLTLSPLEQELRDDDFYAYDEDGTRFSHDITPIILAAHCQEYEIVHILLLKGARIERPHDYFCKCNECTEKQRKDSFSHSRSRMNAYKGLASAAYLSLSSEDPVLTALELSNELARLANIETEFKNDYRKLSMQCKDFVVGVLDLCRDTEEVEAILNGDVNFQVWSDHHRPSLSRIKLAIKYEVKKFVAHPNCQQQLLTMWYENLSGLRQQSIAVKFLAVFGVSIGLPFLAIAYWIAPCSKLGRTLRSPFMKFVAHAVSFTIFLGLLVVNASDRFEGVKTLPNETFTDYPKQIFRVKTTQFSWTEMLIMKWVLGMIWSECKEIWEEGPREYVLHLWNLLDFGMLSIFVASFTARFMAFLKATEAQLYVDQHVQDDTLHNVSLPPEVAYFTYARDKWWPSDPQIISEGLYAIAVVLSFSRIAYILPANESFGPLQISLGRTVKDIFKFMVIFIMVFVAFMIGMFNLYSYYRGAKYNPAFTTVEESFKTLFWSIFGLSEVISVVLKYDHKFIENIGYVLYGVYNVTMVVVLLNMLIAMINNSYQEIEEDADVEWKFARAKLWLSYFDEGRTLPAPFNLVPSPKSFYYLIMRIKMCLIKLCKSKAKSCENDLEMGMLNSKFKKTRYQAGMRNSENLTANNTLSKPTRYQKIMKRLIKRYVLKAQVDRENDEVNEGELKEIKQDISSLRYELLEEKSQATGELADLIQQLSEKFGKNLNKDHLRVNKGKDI

On to `Clc1ccc(Cn2c(CN3CCCC3)nc3ccccc32)cc1` [CLEMIZOLE], for which, in test [1], the IC50 was 1100 nM.
Regarding `N#Cc1ccc(O[C@@H]2c3ccccc3C[C@H]2N2CCC[C@@H](N)C2)c(Cl)c1`, the values for the IC50 in test [2], in test [3] and in test [4] were 282 nM, 226 nM and greater than 10000 nM, respectively.

The term IC50 denotes the concentration that gives 50% inhibition.
